Measured values from US8242275B2, “Bicyclic pyrazole compounds as antibacterial agents” (Janssen Pharmaceutica NV, priority 2005, dated 2012).
Converted amounts (≈) assume the structure as drawn. Read-outs that look alike come from different tables or passages of the source.

Assays:
[1] = test system: E. coli KL-16 (GSC strain 4245); experiment: In vitro antibacterial activity (MIC assay), broth microdilution; type: cell-based; settings: Escherichia coli
Experimental: (§1) Minimal inhibitory concentration (MIC) has been an indicator of in vitro antibacterial activity widely used in the art. The in vitro antibacterial activity of the compounds was determined by the broth microdilution method described by the National Committee for Clinical Laboratory Standards (NCCLS) in the NCCLS Document M7-A5, Vol. 20, No. 2, “Methods for Dilution Antimicrobial Susceptibility Test for Bacteria that Grow Aerobically—Fifth Edition”, which is incorporated herein by reference.
(§2) In this method, an aliquot of test compound from an 11-point series of 2-fold serial dilutions of compounds in 100% DMSO was added to wells in microdilution plates. The test organisms were prepared by adjusting the turbidity of actively growing broth cultures so that the final concentration of test organism after addition to wells with or without compounds was approximately 5×10^5 CFU/mL.
(§3) Following inoculation of the microdilution plates, the plates were incubated at 35° C. for 16-24 h and then scored for bacterial growth. […] The amount of growth in the wells containing the test compound was compared with the amount of growth in the growth-control wells (no test compound used) in each plate, and with the amount of growth in the wells containing control compounds (such as ciprofloxacin). Compounds of the present invention were tested against several bacterial strains. The MIC values (in μg/mL) are presented in Table 1 for Gram-negative (E. coli KL-16 (GSC strain 4245); data marked as (*) was obtained with E. coli ATCC25922) and Gram-positive bacteria (S. aureus ATCC13709; S. pneumoniae ATCC49619).

S. pneumoniae ATCC49619 = experiment: as above; type: cell-based; settings: Streptococcus pneumoniae, ATCC49619; read-out: S. pneumoniae ATCC49619 MIC
Experimental: as §1, §2, §3

S. aureus ATCC13709 = experiment: as above; type: cell-based; settings: Staphylococcus aureus, ATCC13709; read-out: S. aureus ATCC13709 MIC
Experimental: as §1, §2, §3

E. coli DNA gyrase = target: T1, E. coli DNA gyrase (Escherichia coli, UniProt P0AES4+P0AES6); experiment: DNA gyrase inhibition assay (supercoiling); type: biochemical
T1 construct: purchased John Innes Enterprises Ltd. (John Innes Centre, UK)
T1 sequence (P0AES4 whole entry, one chain of several): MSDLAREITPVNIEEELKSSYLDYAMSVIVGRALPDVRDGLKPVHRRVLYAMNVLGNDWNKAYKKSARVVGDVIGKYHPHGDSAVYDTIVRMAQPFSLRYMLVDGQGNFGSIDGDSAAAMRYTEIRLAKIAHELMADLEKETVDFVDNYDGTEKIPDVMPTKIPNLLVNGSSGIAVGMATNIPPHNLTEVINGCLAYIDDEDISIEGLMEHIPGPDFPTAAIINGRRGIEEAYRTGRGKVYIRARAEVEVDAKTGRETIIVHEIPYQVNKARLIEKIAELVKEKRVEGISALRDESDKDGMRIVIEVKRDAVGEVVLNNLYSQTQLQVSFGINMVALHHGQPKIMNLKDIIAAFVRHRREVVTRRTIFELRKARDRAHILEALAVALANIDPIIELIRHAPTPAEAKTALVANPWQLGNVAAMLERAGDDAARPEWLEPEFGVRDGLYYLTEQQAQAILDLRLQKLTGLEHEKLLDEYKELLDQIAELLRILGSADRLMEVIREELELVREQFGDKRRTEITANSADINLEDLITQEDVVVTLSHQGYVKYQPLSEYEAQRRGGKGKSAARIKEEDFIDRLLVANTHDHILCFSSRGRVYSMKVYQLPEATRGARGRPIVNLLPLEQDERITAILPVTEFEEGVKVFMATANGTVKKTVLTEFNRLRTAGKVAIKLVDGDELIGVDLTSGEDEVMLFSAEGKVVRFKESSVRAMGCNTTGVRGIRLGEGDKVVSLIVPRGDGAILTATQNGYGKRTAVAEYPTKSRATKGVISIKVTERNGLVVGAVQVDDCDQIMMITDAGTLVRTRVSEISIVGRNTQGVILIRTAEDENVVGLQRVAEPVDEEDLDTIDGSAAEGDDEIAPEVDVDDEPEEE
Experimental: Inhibition of the supercoiling activity of E. coli DNA gyrase was determined using enzymes, buffers and substrates received from John Innes Enterprises Ltd. (John Innes Centre, UK). The reactions were performed according to the manufacturer's directions, with the following modifications.
DNA supercoiling reactions were carried out in a total reaction volume of 20 μL containing 250 ng of relaxed pBR322, 35 mM Tris-HCl (pH 7.5), 24 mM KCl, 4 mM MgCl2, 2 mM dithiothreitol, 1.8 mM spermidine, 1 mM ATP, 6.5% glycerol and 100 μg/mL albumin. Compounds diluted in 10% DMSO were added to the reaction mixture to reach a final concentration of 0.5% DMSO. Enzyme was diluted to […] in a solution of 50 mM Tris-HCl (pH 7.5), 100 mM KCl, 2 mM dithiothreitol, 1 mM EDTA, and 50% glycerol. Diluted enzyme (0.2 unit) was added to each reaction.
The reactions were incubated at 37° C. for 30 min. The reactions were then cooled to 0° C., followed by addition of 3 μL of 40% glycerol, 100 mM Tris-HCl (pH 7.5), 50 mM EDTA, 0.5% SDS and 0.1% bromophenol blue. Samples were separated on 1.0% agarose gels. Gels were stained with Ethidium bromide and photographed with a Stratagene Eagle Eye II.

[2] = E. coli DNA gyrase supercoiling, visual inspection of gels, read-out: DNA Gyrase IC50 (converted)

| SMILES | MIC [1] [µg/mL] | MIC (S. pneumoniae ATCC49619) [µg/mL] | MIC (S. aureus ATCC13709) [µg/mL] | IC50 (E. coli DNA gyrase; [2]) [µM] | IC50 (E. coli DNA gyrase) [µM] |
| --- | --- | --- | --- | --- | --- |
| COc1ccc2nccc(-n3cc4c(n3)CCC(NC(=O)c3cc5cc(C)ccc5[nH]3)C4)c2c1 (stereo not drawn) [Example 75, 5-Methyl-1H-indole-2-carboxylic acid [2-(6-methoxy-quinolin-4-yl)-4,5,6,7-tetrahydro-2H-indazol-5-yl]-amide] | > 128 | 16 (≈ 35.4 µM) | 4 (≈ 8.86 µM) | > 35.4 |  |
| O=C1CSc2ccc(C(=O)NC3CCc4c(cnn4-c4cc(C(F)(F)F)nc5c(C(F)(F)F)cccc45)C3)cc2N1 (stereo not drawn) [Example 96, 3-Oxo-3,4-dihydro-2H-benzo[1,4]thiazine-6-carboxylic acid [1-(2,8-bis-trifluoromethyl-quinolin-4-yl)-4,5,6,7-tetrahydro-1H-indazol-5-yl]-amide] | 64 (≈ 108 µM) | 32 (≈ 54.1 µM) | 8 (≈ 13.5 µM) | > 6.76 |  |
| COc1ccc2nccc(-n3cc4c(n3)CCC(NC(=O)c3cc5c(cc3Cl)SCC(=O)N5)C4)c2c1 (stereo not drawn) [Example 20, 7-Chloro-3-oxo-3,4-dihydro-2H-benzo[1,4]thiazine-6-carboxylic acid [2-(6-methoxy-quinolin-4-yl)-4,5,6,7-tetrahydro-2H-indazol-5-yl]-amide] | 2 (≈ 3.85 µM) | 2 (≈ 3.85 µM) | < 0.125 | 0.962 |  |
| COc1ccc2nccc(-n3cc4c(n3)CCC(N(CC(=O)OC(C)(C)C)Cc3ccc5c(c3)NC(=O)CS5)C4)c2n1 (stereo not drawn) [Example 67, [[2-(6-Methoxy-[1,5]naphthyridin-4-yl)-4,5,6,7-tetrahydro-2H-indazol-5-yl]-(3-oxo-3,4-dihydro-2H-benzo[1,4]thiazin-6-ylmethyl)-amino]-acetic acid tert-butyl ester] | > 128 | 64 (≈ 109 µM) | 4 (≈ 6.82 µM) | > 13.6 |  |
| COc1ccc2nccc(-n3cc4c(n3)CCC(NC(=O)c3nc5ccccc5[nH]3)C4)c2n1 (stereo not drawn) [Example 8, 1H-Benzoimidazole-2-carboxylic acid [2-(6-methoxy-[1,5]naphthyridin-4-yl)-4,5,6,7-tetrahydro-2H-indazol-5-yl]-amide] | > 128 | 4 (≈ 9.1 µM) | 0.25 (≈ 0.569 µM) | > 36.4 |  |
| COc1ccc2nccc(-n3cc4c(n3)CCC(NCc3cc5c(cc3F)SCCN5)C4)c2c1 (stereo not drawn) [Example 106] | 8 (≈ 16.8 µM) | 1 (≈ 2.1 µM) | 0.5 (≈ 1.05 µM) |  | 4.21 |
| COc1ccc2nccc(-n3cc4c(n3)CCC(N(CC(=O)O)Cc3ccc5c(c3)NC(=O)CS5)C4)c2n1 (stereo not drawn) [Example 68, [[2-(6-Methoxy-[1,5]naphthyridin-4-yl)-4,5,6,7-tetrahydro-2H-indazol-5-yl]-(3-oxo-3,4-dihydro-2H-benzo[1,4]thiazin-6-ylmethyl)-amino]-acetic acid] | > 128 | 8 (≈ 15.1 µM) | 8 (≈ 15.1 µM) | 1.88 |  |
| COc1ccc2nccc(-n3cc4c(n3)CCC(NC(=O)c3cc5ccccc5[nH]3)C4)c2c1 (stereo not drawn) [Example 21, 1H-Indole-2-carboxylic acid [2-(6-methoxy-quinolin-4-yl)-4,5,6,7-tetrahydro-2H-indazol-5-yl]-amide] | > 128 | 8 (≈ 18.3 µM) | 1 (≈ 2.29 µM) | > 36.6 |  |
| COc1ccc2nccc(-n3cc4c(n3)CCC(NCCOc3ccccc3)C4)c2n1 (stereo not drawn) [Example 65, [2-(6-Methoxy-[1,5]naphthyridin-4-yl)-4,5,6,7-tetrahydro-2H-indazol-5-yl]-(2-phenoxy-ethyl)-amine] | > 128 | 1 (≈ 2.41 µM) | 0.5 (≈ 1.2 µM) | 2.41 |  |
| COc1ccc2nccc(-n3cc4c(n3)CCC(NC(=O)c3cc5c(F)cc(F)cc5[nH]3)C4)c2c1 (stereo not drawn) [Example 22, 4,6-Difluoro-1H-indole-2-carboxylic acid [2-(6-methoxy-quinolin-4-yl)-4,5,6,7-tetrahydro-2H-indazol-5-yl]-amide] | > 128 | 8 (≈ 16.9 µM) | 0.5 (≈ 1.06 µM) | 1.06 |  |
| COc1ccc2nccc(-n3cc4c(n3)CCC(NC(=O)c3cc5cc(Cl)ccc5[nH]3)C4)c2c1 (stereo not drawn) [Example 77, 5-Chloro-1H-indole-2-carboxylic acid [2-(6-methoxy-quinolin-4-yl)-4,5,6,7-tetrahydro-2H-indazol-5-yl]-amide] | > 128 | 16 (≈ 33.9 µM) | 2 (≈ 4.24 µM) | > 33.9 |  |
| COc1ccc2nccc(-n3cc4c(n3)CCC(NC(=O)c3cc5c(F)cc(F)cc5[nH]3)C4)c2n1 (stereo not drawn) [Example 7, 4,6-Difluoro-1H-indole-2-carboxylic acid [2-(6-methoxyl-[1,5]naphthyridin-4-yl)-4,5,6,7-tetrahydro-2H-indazol-5-yl]-amide] | > 128 | > 128 | 0.25 (≈ 0.527 µM) | 4.22 |  |
| COc1ccc2nccc(-n3cc4c(n3)CCC(NC(=O)C(=O)c3cc5ccccc5[nH]3)C4)c2n1 (stereo not drawn) [Example 9, 2-(1H-Indol-2-yl)-N-[2-(6-methoxy-[1,5]naphthyridin-4-yl)-4,5,6,7-tetrahydro-2H-indazol-5-yl]-2-oxo-acetamide] | > 128 | 4 (≈ 8.57 µM) | 0.25 (≈ 0.536 µM) | > 34.3 |  |
| COc1ccc2nccc(-n3cc4c(n3)CCC(NCc3ccc(N5CCCC5)cc3)C4)c2n1 (stereo not drawn) [Example 87, [2-(6-Methoxy-[1,5]naphthyridin-4-yl)-4,5,6,7-tetrahydro-2H-indazol-5-yl]-(4-pyrrolidin-1-yl-benzyl)-amine] | 64 (≈ 141 µM) | 8 (≈ 17.6 µM) | 2 (≈ 4.4 µM) | 4.4 |  |
| COc1ccc2nccc(-n3cc4c(n3)CCC(NC(=O)/C=C/c3ccc(Cl)cc3)C4)c2n1 (stereo not drawn) [Example 90, 3-(4-Chloro-phenyl)-N-[2-(6-methoxy-[1,5]naphthyridin-4-yl)-4,5,6,7-tetrahydro-2H-indazol-5-yl]-acrylamide] | > 128 | > 128 | 0.5 (≈ 1.09 µM) | > 34.8 |  |
| COc1ccc2nccc(-n3cc4c(n3)CCC(NC(=O)c3cc(F)c(Cl)cc3Cl)C4)c2n1 (stereo not drawn) [Example 125, 2,4-Dichloro-5-fluoro-N-[2-(6-methoxy-[1,5]naphthyridin-4-yl)-4,5,6,7-tetrahydro-2H-indazol-5-yl]-benzamide] | > 128 | 8 (≈ 16.4 µM) | 0.25 (≈ 0.514 µM) |  |  |
| COc1ccc2nccc(-n3ncc4c3CCC(NC(=O)c3cc5c(cc3Br)SCC(=O)N5)C4)c2c1 (stereo not drawn) [Example 98, 7-Bromo-3-oxo-3,4-dihydro-2H-benzo[1,4]thiazine-6-carboxylic acid [1-(6-methoxy-quinolin-4-yl)-4,5,6,7-tetrahydro-1H-indazol-5-yl]-amide] | > 128 | 64 (≈ 113 µM) | 16 (≈ 28.3 µM) |  |  |
| COc1ccc2nccc(-n3cc4c(n3)CCC(NCC(=O)NCc3ccccc3)C4)c2n1 (stereo not drawn) [Example 84, N-Benzyl-2-[2-(6-methoxy-[1,5]naphthyridin-4-yl)-4,5,6,7-tetrahydro-2H-indazol-5-ylamino]-acetamide] | > 128 | 16 (≈ 36.2 µM) | 2 (≈ 4.52 µM) |  |  |
| COc1ccc2nccc(-n3cc4c(n3)CCC(NC(=O)/C=C/c3cccs3)C4)c2c1 (stereo not drawn) [Example 30, N-[2-(6-Methoxy-quinolin-4-yl)-4,5,6,7-tetrahydro-2H-indazol-5-yl]-3-thiophen-2-yl-acrylamide] | > 128 | 8 (≈ 18.6 µM) | 1 (≈ 2.32 µM) |  |  |
| COc1ccc2nccc(-n3cc4c(n3)CCC(NC/C(C)=C/c3ccccc3)C4)c2c1 (stereo not drawn) [Example 56, [2-(6-Methoxy-quinolin-4-yl)-4,5,6,7-tetrahydro-2H-indazol-5-yl]-(2-methyl-3-phenyl-allyl)-amine] | 128 (≈ 301 µM) | 2 (≈ 4.71 µM) | 1 (≈ 2.36 µM) |  |  |
| COc1ccc2nccc(-n3cc4c(n3)CCC(NCC(=O)Nc3cccc(Cl)c3)C4)c2n1 (stereo not drawn) [Example 123, N-(3-Chloro-phenyl)-2-[2-(6-methoxy-[1,5]naphthyridin-4-yl)-4,5,6,7-tetrahydro-2H-indazol-5-ylamino]-acetamide] | > 128 | > 128 | 1 (≈ 2.16 µM) |  |  |
